Assay results as given in patent US12696902B2, “Pesticidal pyrazole and triazole derivatives” (priority 2019, dated 2026).

Legend:
Assay type in all cases: in vivo
[1] = tested on: Yellow Fever Mosquito (Aedes aegypti); assay: whole plant or invertebrate; conditions: 48 h, freshly hatched A. aegypti larvae, larval mortality visually assessed after 2 days, read-out: mortality in comparison with untreated controls
Procedure: For evaluating control of yellow fever mosquito (Aedes aegypti) the test unit consisted of 96-well-microtiter plates containing 200 μl of tap water per well and 5-15 freshly hatched A. aegypti larvae.
The active compounds or mixtures were formulated using a solution containing 75% (v/v) water and 25% (v/v) DMSO. Different concentrations of formulated compounds or mixtures were sprayed onto the insect diet at 2.5 μl, using a custom built micro atomizer, at two replications. For experimental mixtures in these tests identical volumes of both mixing partners at the desired concentrations respectively, were mixed together.
After application, microtiter plates were incubated at 28±1° C., 80±15% RH for 2 days. Larval mortality was then visually assessed.

[2] = tested on: Diamond Back Moth (Plutella xylostella); assay: Action on diamond back moth, cabbage leaf dip; conditions: foliar, 3rd instar larvae on dipped cabbage leaves, 72 hours after treatment, read-out: mortality in comparison with untreated controls
Procedure: The active compound is dissolved at the desired concentration in a mixture of 1:1 (v/v) distilled water:acetone. Surfactant (Kinetic® HV) is added at a rate of 0.01% (v/v). The test solution is prepared at the day of use.
Leaves of cabbage were dipped in test solution and air-dried. Treated leaves were placed in petri dishes lined with moist filter paper and inoculated with ten 3rd instar larvae. Mortality was recorded 72 hours after treatment. Feeding damages were also recorded using a scale of 0-100%.

[3] = tested on: Boll Weevil (Anthonomus grandis); assay: Action on boll weevil, egg and larval mortality on insect diet in microtiter plates; conditions: 120 h, A. grandis eggs on insect diet, egg and larval mortality after 5 days, read-out: mortality in comparison with untreated controls
Procedure: For evaluating control of boll weevil (Anthonomus grandis) the test unit consisted of 96-well-microtiter plates containing an insect diet and 5-10 A. grandis eggs.
The compounds were formulated using a solution containing 75% (v/v) water and 25% (v/v) DMSO. Different concentrations of formulated compounds were sprayed onto the insect diet at 5 μl, using a custom built micro atomizer, at two replications.
After application, microtiter plates were incubated at about 25+1° C. and about 75+5% relative humidity for 5 days. Egg and larval mortality were then visually assessed.

[4] = tested on: Southern Armyworm (Spodoptera eridania), 2nd Instar Larvae; assay: Action on southern armyworm 2nd instar larvae on sprayed lima bean plants; conditions: 96 h, 4 days after treatment, read-out: mortality in comparison with untreated controls
Procedure: The active compounds were formulated by a Tecan liquid handler in 100% cyclohexanone as a 10,000 ppm solution supplied in tubes. The 10,000 ppm solution was serially diluted in 100% cyclohexanone to make interim solutions. These served as stock solutions for which final dilutions were made by the Tecan in 50% acetone:50% water (v/v) into 10 or 20 ml glass vials. A nonionic surfactant (Kinetic®) was included in the solution at a volume of 0.01% (v/v). The vials were then inserted into an automated electrostatic sprayer equipped with an atomizing nozzle for application to plants/insects.
Lima bean plants (variety Sieva) were grown 2 plants to a pot and selected for treatment at the 1st true leaf stage. Test solutions were sprayed onto the foliage by an automated electrostatic plant sprayer equipped with an atomizing spray nozzle. The plants were dried in the sprayer fume hood and then removed from the sprayer. Each pot was placed into perforated plastic bags with a zip closure. About 10 to 11 armyworm larvae were placed into the bag and the bags zipped closed. Test plants were maintained in a growth room at about 25° C. and about 20-40% relative humidity for 4 days, avoiding direct exposure to fluorescent light (24 hour photoperiod) to prevent trapping of heat inside the bags. Mortality and reduced feeding were assessed 4 days after treatment, compared to untreated control plants.

[5] = tested on: Tobacco Budworm (Heliothis virescens); assay: Action on tobacco budworm, egg and larval mortality on insect diet in microtiter plates; conditions: 120 h, H. virescens eggs on insect diet, egg and larval mortality after 5 days, read-out: mortality in comparison with untreated controls
Procedure: For evaluating control of tobacco budworm (Heliothis virescens) the test unit consisted of 96-well-microtiter plates containing an insect diet and 15-25 H. virescens eggs.
The compounds were formulated using a solution containing 75% v/v water and 25% v/v DMSO. Different concentrations of formulated compounds were sprayed onto the insect diet at 10 μl, using a custom built micro atomizer, at two replications.
After application, microtiter plates were incubated at about 28+1° C. and about 80+5% relative humidity for 5 days. Egg and larval mortality were then visually assessed.

[6] = tested on: Orchid Thrips (Dichromothrips corbetti); assay: Action on orchid thrips, floral-immersion technique; conditions: adult thrips, 72 hours after treatment, read-out: mortality in comparison with untreated controls
Procedure: Dichromothrips corbetti adults used for bioassay were obtained from a colony maintained continuously under laboratory conditions. For testing purposes, the test compound is diluted in a 1:1 mixture of acetone:water (vol:vol), plus Kinetic® HV at a rate of 0.01% v/v.
Thrips potency of each compound was evaluated by using a floral-immersion technique. All petals of individual, intact orchid flowers were dipped into treatment solution and allowed to drying Petri dishes. Treated petals were placed into individual re-sealable plastic along with about 20 adult thrips. All test arenas were held under continuous light and a temperature of about 28° C. for duration of the assay. After 3 days, the numbers of live thrips were counted on each petal. The percent mortality was recorded 72 hours after treatment.

Compound	mortality at 800 ppm [1]	mortality at 500 ppm [2]	mortality at 800 ppm [3]	mortality at 300 ppm [4]	mortality at 800 ppm [5]	mortality at 500 ppm [6]
Cc1nn(-c2ccc(/C=N/N3C(=O)CS/C3=N\c3ccccc3C(C)C)cc2)cc1C(=N)Nc1ccc(OC(F)(F)F)cc1 [Compound C-53, 1-[4-[(E)-[(2Z)-2-(2-isopropylphenyl)imino-4-oxo-thiazolidin-3-yl]iminomethyl]phenyl]-3-methyl-N-[4-(trifluoromethoxy)phenyl]pyrazole-4-carboxamidine]	≥ 50%	≥ 75%	≥ 75%	≥ 75%	≥ 75%	
Cc1cc(/C=N/N2C(=O)CS/C2=N\c2ccccc2C(C)C)ccc1-n1cc(NC(=O)c2ccc(OC(F)(F)F)cc2)c(C)n1 [Compound C-11, N-[1-[4-[(E)-[(2Z)-2-(2-isopropylphenyl)imino-4-oxo-thiazolidin-3-yl]iminomethyl]-2-methyl-phenyl]-3-methyl-pyrazol-4-yl]-4-(trifluoromethoxy)benzamide]	≥ 50%	≥ 75%	≥ 75%	≥ 75%	≥ 75%	
Cc1nn(-c2ccc(/C=N/NC(=S)Nc3ccccc3C(C)C)cc2)cc1NC(=O)c1ccc2c(c1)OC(F)(F)O2 [Compound C-16, 2,2-difluoro-N-[1-[4-[(E)-[(2-isopropylphenyl)carbamothioylhydrazono]methyl]phenyl]-3-methyl-pyrazol-4-yl]-1,3-benzodioxole-5-carboxamide]	≥ 50%	≥ 75%	≥ 75%	≥ 75%	≥ 75%	≥ 75%
Cc1nn(-c2ccc(/C=N/NC(=S)Nc3ccccc3C(C)C)cc2)cc1C(=N)Nc1ccc(OC(F)(F)F)cc1 [Compound C-52, 1-(2-isopropylphenyl)-3-[(E)-[4-[3-methyl-4-[N-[4-(trifluoromethoxy)phenyl]carbamimidoyl]pyrazol-1-yl]phenyl]methyleneamino] thiourea]	≥ 50%	≥ 75%	≥ 75%	≥ 75%	≥ 75%	≥ 75%
Cc1nn(-c2ccc(/C=N/N=C3\SCC(=O)N3c3ccccc3C(C)C)cc2)cc1NC(=O)c1ccc2c(c1)OC(F)(F)O2 [Compound C-17, 2,2-difluoro-N-[1-[4-[(E)-[(Z)-[3-(2-isopropylphenyl)-4-oxo-thiazolidin-2-ylidene]hydrazono]methyl]phenyl]-3-methyl-pyrazol-4-yl]-1,3-benzodioxole-5-carboxamide]	≥ 50%	≥ 75%	≥ 75%	≥ 75%	≥ 75%	
